According to BindingDB's records for doi:10.1016/j.bmcl.2006.10.063 (Astrazeneca R&D Boston, 2007):

biological target: T1, Amine oxidase [flavin-containing] A (Homo sapiens, UniProt P21397); assay: Inhibition human liver MAOA activity
T1 sequence (P21397 whole entry): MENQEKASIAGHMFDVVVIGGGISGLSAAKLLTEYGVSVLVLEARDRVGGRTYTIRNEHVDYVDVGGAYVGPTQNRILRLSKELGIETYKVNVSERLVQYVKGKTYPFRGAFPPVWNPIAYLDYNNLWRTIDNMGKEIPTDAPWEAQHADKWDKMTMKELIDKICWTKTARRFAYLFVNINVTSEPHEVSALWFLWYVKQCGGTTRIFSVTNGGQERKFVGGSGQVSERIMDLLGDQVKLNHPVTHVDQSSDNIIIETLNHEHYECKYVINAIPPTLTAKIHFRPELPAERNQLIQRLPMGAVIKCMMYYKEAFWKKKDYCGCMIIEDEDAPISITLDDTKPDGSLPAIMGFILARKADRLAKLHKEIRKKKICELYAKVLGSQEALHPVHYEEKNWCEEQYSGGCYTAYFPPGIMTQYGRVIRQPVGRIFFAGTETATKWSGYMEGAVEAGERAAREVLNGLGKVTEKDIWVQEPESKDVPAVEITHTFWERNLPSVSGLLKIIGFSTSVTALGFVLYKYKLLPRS

Row | SMILES | Ki [µM]
1 | Cc1cn(C[C@H]2CN(c3ccc(-c4cc(C)no4)c(F)c3)C(=O)O2)nn1 [(5R)-3-(3-fluoro-4-(3-methylisoxazol-5-yl)phenyl)-5-((4-methyl-1H-1,2,3-triazol-1-yl)methyl)oxazolidin-2-one] | 22.6
2 | Cc1cc(-c2ccc(N3C[C@H](Cn4ccnn4)OC3=O)cc2F)on1 [(5R)-5-((1H-1,2,3-triazol-1-yl)methyl)-3-(3-fluoro-4-(3-methylisoxazol-5-yl)phenyl)oxazolidin-2-one] | 2.9
3 | Cc1cc(-c2ccc(N3C[C@H](CNc4ccon4)OC3=O)cc2F)on1 [(5S)-3-(3-fluoro-4-(3-methylisoxazol-5-yl)phenyl)-5-((isoxazol-3-ylamino)methyl)oxazolidin-2-one] | 0.42
4 | CC(=O)NC[C@H]1CN(c2ccc(-c3cc(C)no3)c(F)c2)C(=O)O1 [N-(((S)-3-(3-fluoro-4-(3-methylisoxazol-5-yl)phenyl)-2-oxooxazolidin-5-yl)methyl)acetamide] | 0.95
5 | CC(=O)NC[C@H]1CN(c2ccc(N3CCOCC3)c(F)c2)C(=O)O1 [Zyvox] | 20
